From patent publication US20040110771A1, “7-(r)-aminotriazolopyrimidines, the production thereof and use of the same for combatting phytopathogenic fungi” (priority 2000, published 2004)

Columns and labels:
Format in all cases: in vivo
Pyrenophora teres = test: Activity against net blotch of barley caused by Pyrenophora teres; conditions: barley seedlings "Igri", inoculated 24 h after spraying, 6 days
Method: (§1) The active compounds were prepared separately or jointly as a 10% strength emulsion in a mixture of 70% by weight of cyclohexanone, 20% by weight of Nekanil® LN (Lutensol® AP6, wetting agent having emulsifying and dispersing action based on ethoxylated alkylphenols) and 10% by weight of Wettol® EM (nonionic emulsifier based on ethoxylated castor oil) and diluted with water to the desired concentration.
Leaves of potted barley seedlings of the cultivar “Igri” were sprayed to runoff point with an aqueous preparation of active compound which had been prepared from a stock solution made of 10% of active compound, 85% of cyclohexanone and 5% of emulsifier and were inoculated 24 hours after the spray coating had dried on with an aqueous spore suspension of Pyrenophora teres, the net blotch pathogen. The test plants were then placed in a greenhouse at 20-24° C. and 95-100% relative atmospheric humidity. After 6 days, the extent of the development of the disease was determined visually in % infection of the entire leaf area.

Puccinia recondita = test: Curative activity against brown rust of wheat caused by Puccinia recondita; conditions: curative spray 24 h after inoculation, wheat seedlings "Kanzler", 7 days
Method: as §1
Leaves of potted wheat seedlings of the cultivar “Kanzler” were dusted with spores of brown rust (Puccinia recondita). The pots were then placed in a chamber with high atmospheric humidity (90 to 95%) at 20-22° C. for 24 hours. During this period, the spores germinated and the germinal tubes penetrated into the leaf tissue. The following day, the infected plants were sprayed to runoff point with an aqueous preparation of active compound which had been prepared from a stock solution made of 10% of active compound, 85% of cyclohexanone and 5% of emulsifier. After the spray coating had dried on, the test plants were cultivated in a greenhouse at 20-22° C. and 65-70% relative atmospheric humidity for 7 days. The extent of the rust fungus development on the leaves was then determined.

[1] = test system: Blumeria graminis forma specialis tritici; test: Activity against mildew of wheat caused by Blumeria graminis forma specialis tritici; conditions: wheat seedlings "Kanzler", dusted with spores 24 h after spraying, 7 days
Method: as §1
Leaves of potted wheat seedlings of the cultivar “Kanzler” were sprayed to runoff point with an aqueous preparation of active compound which had been prepared from a stock solution made of 10% of active compound, 85% of cyclohexanone and 5% of emulsifier and were dusted 24 hours after the spray coating had dried on with spores of mildew of wheat (Blumeria graminis forma specialis tritici). The test plants were then placed in a greenhouse at 20-24° C. and 60-90% relative atmospheric humidity. After 7 days, the extent of the mildew development was determined visually in % infection of the entire leaf area.

Row | SMILES | % infection of the leaves after application of an aqueous preparation comprising . . . ppm of active compound (Pyrenophora teres; 16 ppm) | % infection of the leaves after application of an aqueous preparation comprising . . . ppm of active compound (Pyrenophora teres; 63 ppm) | % infection of the leaves after application of an aqueous preparation comprising . . . ppm of active compound (Pyrenophora teres; 250 ppm) | % infection of the leaves after application of an aqueous preparation comprising . . . ppm of active compound (Puccinia recondita; 16 ppm) | % infection of the leaves after application of an aqueous preparation comprising . . . ppm of active compound (Puccinia recondita; 63 ppm) | % infection of the leaves after application of an aqueous preparation comprising . . . ppm of active compound (Puccinia recondita; 250 ppm) | % infection of the leaves after application of an aqueous preparation comprising . . . ppm of active compound ([1]; 16 ppm) | % infection of the leaves after application of an aqueous preparation comprising . . . ppm of active compound ([1]; 63 ppm) | % infection of the leaves after application of an aqueous preparation comprising . . . ppm of active compound ([1]; 250 ppm)
1 | C[C@H](Nc1c(-c2c(Cl)cccc2Cl)c(Cl)nc2ncnn12)C(C)(C)C [comparison (S)-amine of I.-9] | 100% | 100% | 100% |  |  |  |  |  | 
2 | CC[C@@H](C)Nc1c(-c2ccccc2Cl)c(Cl)nc2ncnn12 [I.-42] |  |  |  | 30% | 20% | 5% |  |  | 
3 | Cc1cccc(F)c1-c1c(Cl)nc2ncnn2c1NC(C)C(C)(C)C (single isomer, unassigned) [I.-12a] | 0% | 0% | 0% |  |  |  | 7% | 7% | 7%
4 | C[C@@H](Nc1c(-c2c(F)cc(F)cc2F)c(Cl)nc2ncnn12)C1CCCCC1 [I.-31] | 40% | 3% | 0% |  |  |  | 15% | 7% | 5%
5 | Cc1cccc(F)c1-c1c(Cl)nc2ncnn2c1NC(C)C(C)(C)C [comparison (S)-amine of I.-12a] | 100% | 100% | 100% |  |  |  | 100% | 100% | 100%
6 | CC(Nc1c(-c2c(Cl)cccc2Cl)c(Cl)nc2ncnn12)C(C)(C)C (stereo not shown) [I.-9] | 0% | 0% | 0% |  |  |  |  |  | 
7 | Cc1cccc(F)c1-c1c(Cl)nc2ncnn2c1N[C@H](C)C(C)(C)C (single isomer, unassigned) [I.-12b] | 7% | 7% | 0% |  |  |  | 60% | 60% | 60%
8 | CCCCC[C@H](C)Nc1c(-c2c(F)cc(F)cc2F)c(Cl)nc2ncnn12 [comparison (S)-amine of I.-28] | 100% | 100% | 100% |  |  |  |  |  | 
9 | CC(Nc1c(-c2c(F)cccc2F)c(Cl)nc2ncnn12)C(C)(C)C (stereo not shown) [I.-6] | 0% | 0% |  |  |  |  |  | 50% | 40%
10 | Cc1cc(F)ccc1-c1c(Cl)nc2ncnn2c1NC(C)C(C)(C)C (stereo not shown) [I.-24] |  |  |  |  |  |  | 10% | 5% | 3%
11 | CCCCCC(C)Nc1c(-c2c(F)cc(F)cc2F)c(Cl)nc2ncnn12 (stereo not shown) [I.-28] | 90% | 40% | 20% |  |  |  |  |  | 
12 | Cc1cccc(F)c1-c1c(Cl)nc2ncnn2c1NC(C)C(C)(C)C [comparison (S)-amine of I.-12b] | 100% | 100% | 100% |  |  |  | 100% | 100% | 100%
13 | CC(Nc1c(-c2c(F)cccc2Cl)c(Cl)nc2ncnn12)C(C)(C)C [comparison (S)-amine of I.-3] |  |  |  |  |  | 100% |  |  | 
14 | CCC(C)Nc1c(-c2ccccc2Cl)c(Cl)nc2ncnn12 [comparison (S)-amine of I.-42] |  |  |  | 100% | 60% | 15% |  |  | 
15 | C[C@@H](Nc1c(-c2c(F)cccc2Cl)c(Cl)nc2ncnn12)C(C)(C)C [I.-3] |  |  |  |  |  | 20% |  |  | 
16 | C[C@H](Nc1c(-c2c(F)cccc2F)c(Cl)nc2ncnn12)C(C)(C)C [comparison (S)-amine of I.-6] | 60% | 5% |  |  |  |  |  | 90% | 90%
17 | C[C@H](Nc1c(-c2c(F)cc(F)cc2F)c(Cl)nc2ncnn12)C1CCCCC1 [comparison (S)-amine of I.-31] | 100% | 80% | 80% |  |  |  | 50% | 50% | 15%
18 | Cc1cc(F)ccc1-c1c(Cl)nc2ncnn2c1NC(C)C(C)(C)C [comparison (S)-amine of I.-24] |  |  |  |  |  |  | 60% | 60% | 15%
